This is an account of results in US5432018A, “Peptide library and screening systems” (Affymax Technologies N.V., priority 1991, dated 1995).

This experiment has as its system 3E7 Fab. The experiment can be described thus: Dissociation of [125I]Fab from fusion phage clones. The format is binding, mouse. Further details: key to Dissociation t1/2 (minutes): **: indicates that initial binding was not detected. The following applies: [125I]Fab dissociating from the phage clone bearing the peptide; 4° C; excess free YGGFL added. As for the experimental part:
An assay employing the anti-phage antisera was developed to determine the rate of dissociation of [^125 I]Fab from individual phage isolates. Individual fusion phase isolates were amplified in a 5 ml liquid culture of E. coli K91 cells and phage particles were isolated and quantitated as described above. In 1 ml microtiter minitubes, 25 μl of TBS containing approximately 2×10^9 infectious phage particles were incubated with […] of TBS/0.1% BSA containing 40,000 cpm of [^125 I]Fab for 10 minutes. Anti-phage antisera (25 μl of 1:1000 dilution in PBS/0.1%BSA) and staph A particles coated with goat anti-mouse IgG (25 μl of Tachisorb diluted eight-fold in TBS/0.1% BSA) were then added. Dissociation was initiated after 2 hours further incubation at 4° C. […] Filter bound radioactivity was determined by gamma counting. […] The time corresponding to a 50% reduction of initially bound [^125 I]Fab was determined by linear regression of a semi-logarithmic plot of amount bound vs. time.
Consider “YGAFFQ: hexapeptide isolated with 50 pM Fab”, for which the “Dissociation t1/2” value amounted to 13.4 min. “YGRFFH: hexapeptide isolated with 50 pM Fab”: the “Dissociation t1/2 (minutes)” value is given as “**”. Take “YGGFSP: hexapeptide isolated with 50 pM Fab”: the “Dissociation t1/2 (minutes)” value is “**”.

For the substance “YGGLSM: hexapeptide isolated with 50 pM Fab”, the “Dissociation t1/2” value worked out at 0.96 min. On to “YGYWSL: hexapeptide isolated with 50 pM Fab”, for which the “Dissociation t1/2” value is 15.6 min. Take “YGVFSR: hexapeptide isolated with 50 pM Fab”: the “Dissociation t1/2” value was 2.8 min. With “YGGFLT: hexapeptide isolated with 50 pM Fab”, the “Dissociation t1/2” value is 17.9 min.

Consider “YGAFGG: hexapeptide isolated with 50 pM Fab”, for which the “Dissociation t1/2” value turned out to be 5.0 min. With “YGGLRH: hexapeptide isolated with 50 pM Fab”, the “Dissociation t1/2 (minutes)” value was “**”. Turning to “YGSFSL: hexapeptide isolated with 50 pM Fab”, the “Dissociation t1/2” value worked out at 0.43 min.

Turning to “YGSFMA: hexapeptide isolated with 50 pM Fab”, the “Dissociation t1/2 (minutes)” value is “**”. As for “YGFWSN: hexapeptide isolated with 50 pM Fab”, the “Dissociation t1/2” value is 7.4 min. Same read-out and setting: next, “YGGLVR: hexapeptide isolated with 50 pM Fab”: 0.50 min.
